Test results as given in patent US9475842B2, “Hexadepsipeptide analogues as anticancer compounds” (PIRAMAL ENTERPRISES LIMITED, priority 2012, dated 2016).
Where two headings read alike, the source gives them in different places.

What was measured:
[1] = tested on: MCF-10A, a non-tumourigenic cell line; experiment: Monolayer assay (CCK-8 cytotoxicity), normal cells; assay type: cell-based; settings: Table 6
Description: (§1) The assays were designed as in the reference, BMC Cancer, 2010, 10, 610, 1-11; the disclosure of which is incorporated by reference for the teaching of the assay.
(§2) Human tumour cell lines: Panc-1 (Pancreatic Cancer), HCT 116 (Colorectal Cancer), ACHN (Renal Cell Carcinoma), Calu-1 (Lung Carcinoma), MiaPaca2 (Pancreatic Cancer), FADU (Head and Neck Cancer), PC3 (prostate Cancer), G361 (Melanoma), MDA-MB435S (Melanoma), HeLa (Cervical Cancer) were grown in Minimal Essential Media with Eagle's Basal Salts (MEM-EBS) obtained from AMIMED (BioConcept-Switzerland). Tumour cell lines: MDA-MB231 (Breast Cancer), JURKAT (T cell leukaemia), H460 (Small Cell Lung Cancer) were cultured in RPMI 1640 (AMIMED, BioConcept, Switzerland) medium. All tumour cell lines were supplemented with 10% Foetal Bovine Serum (FBS) (GIBCO), 1% Penicillin/Streptomycin (Sigma) and 1% Anti-Anti (GIBCO) and grown in T-175 tissue culture flasks (Nunc). MCF-10A, a non-tumourigenic cell line, was cultured in Mammary Epithelial Basal Medium (MEBM) with all standard additions (Lonza, Catalog. No. CC-3150). All cells were grown in 5% CO2 incubator at 37° C. Cells were passaged at 80-90% confluence. Adherent cells were trypsinised using Trypsin-EDTA (Sigma) and maintained. All cell lines were purchased from ATCC (Rockville, Md., USA).
(§3) Compound of Formula (1a) [described in example 7] was dissolved in DMSO to give a required stock solution of 20 mM. Eight different concentrations of the compound of Formula (1a) were prepared by serial dilution of stock solution finally resulting in a (compared to the test concentration) 200-fold higher concentration. Compound of Formula (1a) was tested at the concentration of 0.0001 μM, 0.001 μM, 0.01 μM, 0.03 μM, 0.1 μM, 0.3 μM, 1 μM and 3 μM respectively. Each concentration was evaluated in triplicate.
(§4) Method for determination of IC50 of the compound of Formula (1a): • a) Different cancer/normal cells were seeded at a density of 3000 cells/200 μL well, in a tissue culture grade 96 well plate and allowed them to recover for 24 hrs in a humidified 5±0.2% CO2 incubator at 37±0.5° C. • b) After 24 hrs, 1 μL of 200× (200 times higher than required concentration is denoted as 200×) compound of Formula (1a), dissolved in DMSO, was added to the above tissue culture plate seeded with cancer/normal cells. The final concentration of DMSO was 0.5% in wells. DMSO was used as a vehicle control. • c) After 24 hrs the plate was removed from CO2 incubator and 5 μL of CCK-8 (Dojindo Molecular Technologies, Inc. USA, catalog, no. CK04-20) per well was added. • d) The plate was then placed at 37° C. for 2 hrs. • e) The absorbance was recorded at 450 nm. • f) The percent cytotoxicity was calculated using the following formula
(§5) The IC50 value was estimated by visual inspection of the concentration-effect curve. For calculation of mean IC50 values over the fourteen cell lines as tested, the geometric mean was selected.
(§6) The assays were designed as described above in example 16.
(§7) The IC50 value was estimated by visual inspection of the concentration-effect curve. For calculation of mean IC50 values over the six cell lines (PC3, MDA MB, HCT116, MCF7, MIAPaCa2, MCF10A) as tested, the geometric mean was selected.

MCF7 = experiment: Monolayer assay (CCK-8 cytotoxicity); assay type: cell-based; settings: Table 6, read-out: IC50 (μM) in different cancer cell lines: MCF7
Description: as §1, §4, §6, §7

[2] = tested on: MDA-MB231 (Breast Cancer); experiment: Monolayer assay (CCK-8 cytotoxicity); assay type: cell-based, human; settings: MDA MB-231, Table 6, read-out: IC50 (μM) in different cancer cell lines: MDA MB-231
Description: as §1, §2, §3, §4, §5, §6, §7

[3] = tested on: HCT 116 (Colorectal Cancer); experiment: Monolayer assay (CCK-8 cytotoxicity); assay type: cell-based, human; settings: HCT116, Table 6, read-out: IC50 (μM) in different cancer cell lines: HCT116
Description: as §1, §2, §3, §4, §5, §6, §7

PC3 (prostate Cancer) = experiment: Monolayer assay (CCK-8 cytotoxicity); assay type: cell-based, human; settings: PC3, Table 6, read-out: IC50 (μM) in different cancer cell lines: PC3
Description: as §1, §2, §3, §4, §5, §6, §7

different cancer cells = experiment: Monolayer assay, range over the cancer cell lines tested; assay type: cell-based; settings: Homo sapiens; range over the cancer cell lines of Table 6
Description: as §1, §2, §3, §4, §5, §6, §7

[4] = Solubility (physical properties); assay type: physicochemical
[5] = MCF10A normal cells, read-out: IC50 (μM) in different cancer cell lines: MCF10A
[6] = read-out: IC50 (μM) in different cancer cell lines: MCF10A, MCF10A normal cells
[7] = Homo sapiens, MCF-10A, read-out: IC50 (μM) in different cancer cell lines: MCF10A, MCF10A normal cells

| Compound | IC50 [1, 5] | IC50 (MCF7) | IC50 [2] | IC50 [3] | IC50 (PC3 (prostate Cancer)) | IC50 [1, 6] | IC50 (MCF7; Homo sapiens) | IC50 (different cancer cells) | IC50 ([2]; Homo sapiens) | IC50 ([3]; Homo sapiens, HCT-116) | IC50 (PC3 (prostate Cancer); Homo sapiens) | IC50 [1, 7] | Solubility in organic solvents ([4]; chloroform, ethyl acetate and methanol) | Solubility in water ([4]; water) |
| --- | --- | --- | --- | --- | --- | --- | --- | --- | --- | --- | --- | --- | --- | --- |
| CON1C(=O)C2CCCNN2C(=O)C(NC(=O)C(C)(O)C2(O)CCC(CC(C)C)C(C)O2)C(C(C)C)OC(=O)C(C)N(O)C(=O)C2CCCNN2C(=O)CNC(=O)C1C (stereo not shown) [Compound 1, 2-hydroxy-N-(18-hydroxy-22-isopropyl-6-methoxy-7,19-dimethyl-5,8,11,17,20,24-hexaoxotetracosahydrodipyridazino[6,1-f:6′,1′-o][1,4,7,10,13,16]oxapentaazacyclononadecin-23-yl)-2-(2-hydroxy-5-isobutyl-6-methyltetrahydro-2H-pyran-2-yl) propanamide] | 0.247 µM | 0.355 µM | 0.293 µM | 0.287 µM | 0.502 µM |  |  |  |  |  |  |  |  |  |
| CON1C(=O)C2CCCNN2C(=O)C(NC(=O)C(C)(O)C2(O)CCC(CC(C)C)C(C)O2)C(C(C)C)OC(=O)C(C)N(OC)C(=O)C2CCCNN2C(=O)CNC(=O)C1C (stereo not shown) [Compound 2, 2-hydroxy-2-(2-hydroxy-5-isobutyl-6-methyltetrahydro-2H-pyran-2-yl)-N-(22-isopropyl-6,18-dimethoxy-7,19-dimethyl-5,8,11,17,20,24-hexaoxotetracosahydrodipyridazino[6,1-f:6′,1′-o][1,4,7,10,13,16]oxapentaazacyclononadecin-23-yl)propanamide] |  |  |  |  |  | 0.691 µM | 0.826 µM | 9 to 1040 nM | 0.8 µM | 0.635 µM | 1.04 µM |  |  |  |
| CC(C)CC1CCC(O)(C(C)(O)C(=O)NC2C(=O)N3NCCCC3C(=O)N(OC(=O)CCNC(=O)OCc3ccccc3)C(C)C(=O)NCC(=O)N3NCCCC3C(=O)N(O)C(C)C(=O)OC2C(C)C)OC1C (stereo not shown) [Compound 3, 18-hydroxy-23-(2-hydroxy-2-(2-hydroxy-5-isobutyl-6-methyltetrahydro-2H-pyran-2-yl)propanamido)-22-isopropyl-7,19-dimethyl-5,8,11,17,20,24-hexa oxoicosahydrodipyridazino[6,1-f:6′,1′-o][1,4,7,10,13,16]oxapentaazacyclononadecin-6(7H,13H,22H)-yl 3-(((benzyloxy)carbonyl)amino)propanoate] |  |  |  |  |  | 0.031 µM | 0.025 µM | 9 to 1040 nM | 0.03 µM | 0.009 µM | 0.044 µM |  |  |  |
| CC(C)CC1CCC(O)(C(C)(O)C(=O)NC2C(=O)N3NCCCC3C(=O)N(OC(=O)CCN)C(C)C(=O)NCC(=O)N3NCCCC3C(=O)N(O)C(C)C(=O)OC2C(C)C)OC1C (stereo not shown) [Compound 4, 18-hydroxy-23-(2-hydroxy-2-(2-hydroxy-5-isobutyl-6-methyltetra hydro-2H-pyran-2-yl)propanamido)-22-isopropyl-7,19-dimethyl-5,8,11,17,20,24-hexaoxo icosahydrodipyridazino[6,1-f:6′,1′-o][1,4,7,10,13,16]oxapentaazacyclononadecin-6(7H,13H,22H)-yl 3-aminopropanoate] | < 0.3 µM | 0.03 µM | 0.2 µM | 0.17 µM |  |  |  |  |  |  |  |  |  |  |
| CC(C)CC1CCC(O)(C(C)(O)C(=O)NC2C(=O)N3N=CCCC3C(=O)N(O)C(C)C(=O)NCC(=O)N3N=CCCC3C(=O)N(O)C(C)C(=O)OC2C(C)C)OC1C (stereo not shown) [Compound 5, N-(6,18-dihydroxy-22-isopropyl-7,19-dimethyl-5,8,11,17,20,24-hexaoxo-3,4,4a,5,6,7,8,9,10,11,15,16,16a,17,18,19,20,22,23,24-icosahydrodipyridazino[6,1-f:6′,1′-o][1,4,7,10,13,16]oxapentaazacyclononadecin-23-yl)-2-hydroxy-2-(2-hydroxy-5-isobutyl-6-methyltetrahydro-2H-pyran-2-yl)propanamide] |  |  |  |  |  | < 0.01 µM | 0.018 µM | 9 to 1040 nM | 0.012 µM | < 0.01 µM |  | 0.01 to 0.83 µM |  |  |
| CC(C)CC1CCC(O)(C(C)(O)C(=O)NC2C(=O)N3NCCCC3C(=O)NC(C)C(=O)NCC(=O)N3NCCCC3C(=O)NC(C)C(=O)OC2C(C)C)OC1C (stereo not shown) [Compound 6, 2-hydroxy-2-(2-hydroxy-5-isobutyl-6-methyltetrahydro-2H-pyran-2-yl)-N-(22-isopropyl-7,19-dimethyl-5,8,11,17,20,24-hexaoxotetracosahydrodipyridazino[6,1-f:6′,1′-o][1,4,7,10,13,16]oxapentaazacyclononadecin-23-yl)propanamide] |  |  |  |  |  | 0.819 µM | 0.977 µM | 9 to 1040 nM | 0.343 µM | 0.284 µM | 0.998 µM |  |  |  |
| CC(=O)ON1C(=O)C2CCCNN2C(=O)C(NC(=O)C(C)(O)C2(O)CCC(CC(C)C)C(C)O2)C(C(C)C)OC(=O)C(C)N(O)C(=O)C2CCCNN2C(=O)CNC(=O)C1C (stereo not shown) [Compound 7, 18-hydroxy-23-(2-hydroxy-2-(2-hydroxy-5-isobutyl-6-methyltetra hydro-2H-pyran-2-yl)propanamido)-22-isopropyl-7,19-dimethyl-5,8,11,17,20,24-hexaoxo icosahydrodipyridazino[6,1-f:6′,1′-o[]1,4,7,10,13,16]oxapentaazacyclononadecin-6(7H,13H,22H)-yl acetate] | 0.83 µM | 0.843 µM | 0.32 µM | 0.257 µM | 0.36 µM |  |  |  |  |  |  |  |  |  |
| CC(C)CC1CCC(O)(C(C)(O)C(=O)NC2C(=O)N3N=CCCC3C(=O)N(O)C(C)C(=O)NCC(=O)N3NCCCC3C(=O)N(O)C(C)C(=O)OC2C(C)C)OC1C (stereo not shown) [Formula (1b), N-(6,18-dihydroxy-22-isopropyl-7,19-dimethyl-5,8,11,17,20,24-hexaoxo-3,4,4a,5,6,7,8,9, 10,11,13,14,15, 16,16a, 17,18,19,20,22,23,24-docosahydrodipyridazino[6,1-f:6′,1′-o][1,4,7,10, 13,16]oxapentaazacyclononadecin-23-yl)-2-hydroxy-2-(2-hydroxy-5-isobutyl-6-methyltetra hydro-2H-pyran-2-yl)propanamide] |  |  |  |  |  |  | 0.071 µM | 18 to 71 nM | 0.018 µM | 0.032 µM | 0.035 µM | 0.03 µM | Soluble in chloroform, ethyl acetate and methanol and | insoluble in water |
